Our source for the MIC values is patent US9414596B2, “Metalloenzyme inhibitor compounds” (Viamet Pharmaceuticals, Inc., priority 2012, dated 2016).

Assay [1] concerns C. albicans. As to the kind of experiment: Minimum Inhibitory Concentration (MIC) (C. albicans), CLSI M27-A2. In kind it is cell-based. The following applies: Candida albicans, 48 h, read-out: Candida MIC Rating. The procedure: A. Minimum Inhibitory Concentration (MIC) (C. albicans) Compounds of the present disclosure were assessed for their ability to inhibit the growth of common strains of fungus, C. albicans using a standardized procedure (CLSI M27-A2). Stock solutions of the test compounds and standards were prepared in DMSO at 1,600 μg/mL (C. albicans). Eleven, serial, one-half dilutions of compounds were prepared in 96-well plates in RPMI+MOPS. The assay concentration ranges were 8-0.001 μg/mL (C. albicans). Cell suspensions of C. albicans were prepared and added to each well at concentrations of approximately 3.7×10^3 colony-forming-units per milliliter (cfu/mL). All testing was in duplicate. The inoculated plates were incubated for approximately 48 h at 35±1° C. At the completion of incubation the wells of each plate were evaluated visually for the presence of fungal growth. […] For QC purposes C. krusei isolate ATCC 6258 (4.0×10^3 cfu/mL) was included in the VOR assay.

In assay [2] the test system is Septoria tritici (ATCC 26517). As to the kind of experiment: Minimum Inhibitory Concentration (MIC) (Septoria tritici), CLSI-based microdilution. It counts as cell-based. The following applies: Zymoseptoria tritici, ATCC26517, 168 h, S. tritici ATCC 26517; seven days at 22° C. in the dark; MIC = 50% reduction in growth, visual; read-out: Septoria MIC Rating. The method, then: B. Minimum Inhibitory Concentration (MIC) (Septoria tritici)
Compounds of the present disclosure were assessed for their ability to inhibit the growth of a common strain of the fungal plant pathogen Septoria tritici (ATCC 26517) using a procedure based on a Clinical and Laboratory Standards Institute (CLSI) microdilution assay protocol for filamentous fungi.
Stock solutions of the test compounds and standards were prepared in DMSO at 6400 μg/mL. Each stock solution was used to prepare a 2-fold dilution series ranging from 16 to 0.016 μg/mL (total of 11 compound concentrations) in RPMI-1640 (Roswell Park Memorial Institute) medium containing 3-(N-morpholino)propanesulfonic acid (MOPS) buffer and 2% DMSO. A 100 μL aliquot of the dilutions was added to columns 1 (16 μg/mL compound) through 11 (0.016 μg/mL compound) of a 96-well microtiter plate. This format was replicated in a second row of the microtiter plate. Thus, each microtiter plate could include 11 concentrations of four test or control compounds replicated twice. A 100 μL aliquot of RPMI-1640/MOPS/2% DMSO medium was added to column 12 (no compound control) of the microtiter plate.
A fresh culture of S. tritici was used to prepare a solution of approximately 5×10^4 colony-forming units per milliliter (cfu/mL) in RPMI/MOPS medium without DMSO. A 100 μL aliquot of this solution was added to all 96 wells in the microtiter plate. […] The assay plates were incubated at 22° C. for seven days in the dark without shaking.
For orientation: Dilution methods test growth across graded concentrations, often in twofold steps.

The mark [3] stands for this setting: C. albicans, approximately 48 h at 35±1° C., MIC = about 50% growth reduction, visual.

SMILES strings stand for the structures. In brackets after ≈: the same amount, converted by molar mass. Where two headings read alike, the source gives them in different places.

Usually MIC stands for the smallest concentration in the dilution series that meets the test's criterion for growth inhibition. As for `O=P(O)(O)OC(Cn1cnnn1)(c1ccc(F)cc1F)C(F)(F)c1ccc(-c2ccc(OCC(F)(F)F)cc2)cn1` (stereo not shown) [Example 58, 2-(2,4-difluorophenyl)-1,1-difluoro-3-(1H-tetrazol-1-yl)-1-(5-(4-(2,2,2-trifluoroethoxy)phenyl)pyridin-2-yl)propan-2-yl dihydrogen phosphate], the MIC in assay [1] (setting [3]) was less than 0.5 µg/mL.

As for `OC(Cc1cc[nH]n1)(c1ccc(F)cc1F)C(F)(F)c1ccc(-c2ccc(OC(F)(F)F)cc2)cn1` (stereo not shown) [Example 15, 2-(2,4-Difluorophenyl)-1,1-difluoro-3-(1H-pyrazol-3-yl)-1-(5-(4-(trifluoromethoxy)phenyl)-pyridin-2-yl)propan-2-ol], the MIC in assay [1] is less than 0.5 µg/mL.

For `CC(C)(C)Oc1ccc(-c2ccc(C(F)(F)C(O)(Cn3cnnn3)c3ccc(F)cc3F)nc2)cc1` (stereo not shown) [Example 28, 1-(5-(4-(tert-Butoxy)phenyl)pyridin-2-yl)-2-(2,4-difluorophenyl)-1,1-difluoro-3-(1H-tetrazol-1-yl)propan-2-ol], the MIC in assay [2] was less than 0.5 µg/mL.

`OC(Cn1cnnn1)(c1ccc(F)cc1F)C(F)(F)c1ccc(-c2ccc(OCC(F)(F)C(F)(F)F)cc2)cn1` (stereo not shown) [Example 12, 2-(2,4-Difluorophenyl)-1,1-difluoro-1-(5-(4-(2,2,3,3,3-pentafluoropropoxy)phenyl)pyridin-2-yl)-3-(1H-tetrazol-1-yl)propan-2-ol]: in assay [1], the MIC was less than 0.5 µg/mL.

For `OC(Cn1cnnn1)(c1ccc(F)cc1F)C(F)(F)c1ccc(-c2ccc(CC(F)(F)F)cc2)cn1` (stereo not shown) [Example 41, 2-(2,4-Difluorophenyl)-1,1-difluoro-3-(1H-tetrazol-1-yl)-1-(5-(4-(2,2,2-trifluoroethyl)phenyl)pyridin-2-yl)propan-2-ol], in assay [2], the MIC is less than 0.5 µg/mL.

As for `CC(F)(c1ccc(-c2ccc(F)cc2)cn1)[C@](O)(Cn1cnnn1)c1ccc(F)cc1F` (stereo in doubt) [Example 50, 2-(2,4-Difluorophenyl)-3-fluoro-3-(5-(4-fluorophenyl)pyridin-2-yl)-1-(1H-tetrazol-1-yl)butan-2-ol], the MIC in assay [1] (setting [3]) is 1.5 to 4 µg/mL (≈ 3.38 to 9.02 µM).

Consider `CC(F)(c1ccc(-c2ccc(C(F)(F)F)cc2)cn1)C(O)(Cn1cnnn1)c1ccc(F)cc1F` (stereo not shown) [Example 53, 2-(2,4-Difluorophenyl)-3-fluoro-1-(1H-tetrazol-1-yl)-3-(5-(4-(trifluoromethyl)phenyl)pyridin-2-yl)butan-2-ol], for which the MIC in assay [2] is 1.5 to 4 µg/mL (≈ 3.04 to 8.11 µM).
